Test results taken from patent US10328062B2, “Biomarkers and use of MET inhibitor for treatment of cancer” (AMGEN, INC., priority 2014, dated 2019).
Where two headings read alike, the source gives them in different places.

How the values were obtained:
SNU-5 = assay: 72 hour cancer cell line viability assay (CellTiter-Glo); format: cell-based, Human
Procedure: (§1) Human cancer cell lines were purchased from ATCC, JCRB, Sigma Aldrich or DSMZ. All cell lines were propagated in growth media per the suppliers' recommendation and maintained in 5% CO2 and 37° C.
(§2) Cancer cell line viability assays were carried out using the CellTiter-Glo Luminescent Cell Viability Assay from Promega (Madison, Wis.). Optimal cell seeding densities were determined using time lapse imaging to maximize signal window and ensure cells were not contact growth inhibited at the 72 hour time point. Cells were seeded in 96 well plates in complete growth media and allowed to adhere to the bottom of the plate by incubation at 37° C. and 5% CO2 overnight. […] Plates were incubated at 37° C. and 5% CO2 for 72 hours. Treated plates were then allowed to equilibrate to room temperature along with, CellTiter-Glo substrate and buffer solution prior to use in the viability assay. CellTiter-Glo substrate vials were reconstituted in 10 mL of buffer solution and added to assay plates in 100 μL/well volumes. Plates were shaken for 2 minutes at 700 rotations per minute with an orbit diameter of 3 mm followed by room temperature incubation for 10 minutes. Plates were then read using an Envision plate reader on luminescent setting.
(§3) To calculate growth inhibition effects (0-200% scale), time zero vehicle treated wells (V0), were read at the time of compound addition for each cell line.
(§4) Threshold for high vs low MET copy number was set at aCGH log 2 ratio of 2.5. Focal nature of MET copy number increase was defined qualitatively using tiled aCGH results for chromosome 7.
(§5) Percent growth inhibition is reported on a 0-200% scale where 0% is equivalent to no effect (time 72 hour control), 100% is equivalent to stasis (time 0 hour control) and 200% is equivalent to complete cell death.

SNU-620 = assay: as above; format: cell-based, Human
Procedure: as §1, §2, §3, §4, §5

AU-565 = assay: as above; format: cell-based; conditions: Homo sapiens, AU565; AU-565, Breast; MET copy number Low, focal No; 72 hour viability
Procedure: as §1, §2, §4

Alexander = assay: as above; format: cell-based; conditions: Homo sapiens, Liver, MET copy number Low, focal No, 72 hour viability
Procedure: as §1, §2, §4

C32 = assay: as above; format: cell-based; conditions: Homo sapiens; C32, Melanoma; MET copy number Low, focal No; 72 hour viability
Procedure: as §1, §2, §4

CAL-54 = assay: as above; format: cell-based; conditions: Homo sapiens; CAL-54, Kidney; MET copy number Low, focal No; 72 hour viability
Procedure: as §1, §2, §4

EBC-1 = assay: as above; format: cell-based; conditions: Homo sapiens; EBC-1, NSCLC; MET copy number High, focal Yes; 72 hour viability
Procedure: as §1, §2, §4

G-361 = assay: as above; format: cell-based; conditions: Homo sapiens; G-361, Melanoma; MET copy number Low, focal No; 72 hour viability
Procedure: as §1, §2, §4

HCC1395 = assay: as above; format: cell-based; conditions: Homo sapiens; HCC1395, breast; MET copy number Low, focal No; 72 hour viability
Procedure: as §1, §2, §4

HOP-92 = assay: as above; format: cell-based; conditions: Homo sapiens; HOP-92, NSCLC; MET copy number Low, focal No; 72 hour viability
Procedure: as §1, §2, §4

Hs 746T = assay: as above; format: cell-based; conditions: Homo sapiens, Hs746T, Gastric, MET copy number High, focal Yes, 72 hour viability
Procedure: as §1, §2, §4

Malme-3M = assay: as above; format: cell-based; conditions: Homo sapiens, Melanoma, MET copy number Low, focal No, 72 hour viability
Procedure: as §1, §2, §4

NCI-H1573 = assay: as above; format: cell-based; conditions: Homo sapiens
Procedure: as §1, §2, §4

NCI-H1648 = assay: as above; format: cell-based; conditions: Homo sapiens; NCI-H1648, NSCLC; MET copy number Low, focal Yes; 72 hour viability
Procedure: as §1, §2, §4

NCI-H2342 = assay: as above; format: cell-based; conditions: Homo sapiens; NCI-H2342, NSCLC; MET copy number Low, focal No; 72 hour viability
Procedure: as §1, §2, §4

NCI-H820 = assay: as above; format: cell-based; conditions: Homo sapiens; NCI-H820, NSCLC; MET copy number Low, focal No; 72 hour viability
Procedure: as §1, §2, §4

NUGC-4 = assay: as above; format: cell-based; conditions: Homo sapiens; NUGC-4, Gastric; MET copy number Low, focal Yes; 72 hour viability
Procedure: as §1, §2, §4

OE33 = assay: as above; format: cell-based; conditions: Homo sapiens; OE33, Esophagus; MET copy number High, focal Yes; 72 hour viability
Procedure: as §1, §2, §4

TPR-MET xenografts = assay: animal or person
Procedure: Nude mice bearing established TPR-MET xenografts were treated with Compound Mat doses of 0.1, 0.5, 0.75, 1, 2, 3, or 10 mg/kg. Three hours post dose, tumors were excised and flash frozen in liquid nitrogen. Tumors were then homogenized in lysis buffer containing protease and phosphatase inhibitors. Lysates were then processed per the SDS-PAGE and Immunoblotting protocol.
Tumors were harvested 3 hours post dose and tumor lysates prepared for analysis by SDS-PAGE and immunoblot using antibodies to phospho-Gab1 and β-actin. Phospho-Gab1 levels were quantified using a chemiluminescent imaging system.

[1] = 28-day rat toxicology study; conditions: in vivo

## COCCOc1cnc2ccn([C@H](C)c3nnc4c(F)cc(-c5cnn(C)c5)cn34)c(=O)c2c1 [Compound M, 6-{(1R)-1-[8-fluoro-6-(1-methyl-1H-pyrazol-4-yl)[1,2,4]triazolo[4,3-a]pyridin-3-yl]ethyl}-3-(2-methoxyethoxy)-1,6-naphthyridin-5(6H)-one]
SNU-5; Homo sapiens, SNU-5, 72 h
  IC50: 3 nM
SNU-5; SNU-5, 72 hour, 0-200% growth inhibition scale
  viability response type: evidence of cell death
SNU-620; Homo sapiens, SNU620, 72 h
  IC50: 14 nM
SNU-620; SNU-620, 72 hour, 0-200% growth inhibition scale
  viability response type: evidence of cell death
AU-565
  IC50: > 3000 nM
Alexander
  IC50: > 3000 nM
C32
  IC50: > 3000 nM
CAL-54
  IC50: > 3000 nM
EBC-1
  IC50: 8 nM
G-361
  IC50: > 3000 nM
HCC1395
  IC50: > 3000 nM
HOP-92
  IC50: > 3000 nM
Hs 746T
  IC50: 3 nM
Malme-3M
  IC50: > 3000 nM
NCI-H1573; NCI-H1573, NSCLC, MET copy number High, focal Yes, 72 hour viability, read-out: IC50
  IC50: > 3000 nM
NCI-H1573; NCI-H1573, high level focal MET amplification (log 2 ratio=2.9), KRAS G12A, read-out: viability assay IC50
  IC50: > 3000 nM
NCI-H1648
  IC50: > 3000 nM
NCI-H2342
  IC50: > 3000 nM
NCI-H820
  IC50: > 3000 nM
NUGC-4
  IC50: > 3000 nM
OE33
  IC50: 3 nM
TPR-MET xenografts; Mus musculus, 3 h, read-out: inhibition of phospho-Gab1
  inhibition at 1 mg/kg: > 90%
TPR-MET xenografts; TPR-Met xenograft model
  average exposure shown to inhibit c-Met activity by 90%: 0.154 µg/mL
[1]
  AUC(0-t): 82400 ng·h/mL
  Cmax: 12300 ng/mL
